The values below come from patent US20260374750A1, “LIGANDS SPECIFICALLY TARGETING VESICULAR GLUTAMATE TRANSPORTERS FOR SUPER-RESOLUTION IMAGING” (SORBONNE UNIVERSITÉ, priority 2021, published 2026).

Data set [1] can be described thus: Fluorimetry: absorption and emission spectra, Stokes shift, molar absorption coefficient, quantum efficiency. The class given is physicochemical. More on the design: λmax abs / λmax em: unit not given here; key to Stokes shift: λmaxem − λmaxabs (emission peak minus absorption peak). As to conditions: for Stokes shift: λmaxem-λmaxabs; for ε (molar absorption coefficient) / φ (quantum efficiency): coumarin-343 as reference. As to the method:
The physicochemical properties of each ligand were determined thanks to fluorimetry. For each compound, a dilution range was performed and measurements were taken at 1 mM, 316 μM, 100 μM, 31.6 μM, 10 μM, 3.16 μM and 1μ. In 96-well fluorescence microplates, the absorbance and emission spectra of the ligands could be determined at each concentration thanks to a plate spectrophotometer (Tecan). The absorbance spectra are first measured for each compound so as to determine the maximum absorption wavelength (λmaxabs). The fluorescence, or emission, spectra are then determined after excitation of each compound at its λmaxabs, thus allowing obtaining the maximum fluorescence wavelength (λmaxem). Different parameters specific to each of the compounds were determined: • The Stokes shift: it corresponds to the difference between the peak of the absorption spectrum and the peak of the fluorescence spectrum, i.e.: λmaxem-λmaxabs • The molar absorption coefficient (ε): it reflects the capacity of the solutions to absorb light and is determined by the formula ε=A/(C.I)(A: optical density at λmaxabs, C: concentration of the compound, I: constant corresponding to the length of the optical path). ε is expressed in L·cm^−1·mol^−1. • The quantum efficiency (Φ): it represents the ratio of the number of photons emitted to the number of photons absorbed by the compound, i.e. the “probability” for an excited molecule to emit a photon. It takes a value between 0 and 1, 0 corresponding to a non-fluorescent molecule and 1 meaning that there is no de-excitation. Its value is determined thanks to the following formula where Abs: optical density at λmaxabs, AUC: area under the curve of the fluorescence spectrum, n: refractive index of the medium. In this formula, “m” refers to the studied molecule, and “r” to a reference fluorophore.
[formula] • of the fluorescence spectrum, n: refractive index of the medium). In this formula, “m” refers to the studied molecule, and “r” to a reference fluorophore.
The determination of ε and Φ requires the use of a reference fluorescent molecule for which these two parameters are known. Because of its coumarin-type fluorescent pattern, therefore close to those of the studied compounds, coumarin-343 (ε=44300 L·cm−1·mol−1 and Φ=0.63 in ethanol) was used as reference fluorophore. These two parameters were recalculated in the compound dilution medium (DMSO), and were used as a reference in the calculation of ε and Φ for each ligand.
In order to study the effect of a pH variation on the fluorescence intensity of the compounds, the measurements of the absorption and emission spectra were carried out in three different dilution media: • DMSO: pure dimethyl sulfoxide • Phosphate buffer pH 7.2 (0.2 M) • Phosphate buffer pH 5.5 (0.2 M)
FIG. 1 illustrates the absorption and emission spectra of the compound referenced L8, a carboxylic acid from the quinoline family. This is an example of the study carried out on each of the studied fluorophores. The graphic values determined thanks to these spectra are the λmaxabs, the λmaxem and the Stokes shift in each medium. […] The most diluted wells are preferred to see the emission peak of the compound.
The results which are obtained graphically thanks to the excitation and emission spectra and by calculation via the properties of coumarin 343 are grouped in Table 2 below.

Data set [2] has as its system VGLUTs (GLU vesicular transport). Kind of data set: Vesicular glutamate reuptake test ([3H]-glutamate, synaptic vesicles). The class given is biochemical, rat. As to conditions: for EC50: vesicular glutamate transport; for potency in words (EC50): based on EC50. As to the method:
The EC50 was also determined for several of the compounds of the invention.
The vesicular glutamate reuptake was tested as previously described (Kish and Ueda, 1989; Naito and Ueda, 1985; Pietrancosta et al., 2010) with minor modifications. Aliquots of synaptic vesicles […] (obtained by differential centrifugation of rat cortex) were diluted in a solution containing 4 mM HEPES-KOH, pH 7.4 and 0.32M sucrose. The tested compounds were dissolved in 1% ethanol, 1% DMSO (pH was adjusted to 7.4 with 5% KOH) to initial concentrations comprised between 2 mM and 200 μM. The compounds were then diluted to desired final concentrations in a solution containing 10 mM HEPES-KOH, pH 7.4, 0.32 M sucrose, 4 mM KCl, 4 mM MgSO4 (named TPU). The tested compounds were pre-incubated in a solution containing 3 mM ATP-Mg, 1 mM L-aspartic acid, 100 μM glutamate and 0.4 mM […] and 0.4 μM [3H]-Glutamate (1.547 TBq/mmol). After 4 min at 37 °C, the reuptake reaction was initiated by the addition of rat synaptic vesicles. This mixture was incubated for 10 min at 37 °C before adding ice-cold TPU (3.5 mL) and rapidly filtering it through a membrane filter ([…], Millipore MF reference HAWP02500) using a vacuum collector. The filters were washed five times with 3.5 mL of cold TPU and placed in scintillation vials with a scintillation cocktail (optiphase hisafe 3, reference 1200-437, Perkin Elmer). The radioactivity related to the filters was measured in a Beckman LS 6500 scintillation spectrophotometer. The values obtained in the absence of ATP-Mg or in the presence of Carbonyl [COMPOUND LEFT OUT] 3-chlorophenylhydrazone (CCCP, 50 μM reference Sigma C2759) were used to determine the non-specific activity.

The mark [3] stands for this setting: pH 7 (phosphate buffer pH 7.2, 0.2 M).
Where [4] appears, read: phosphate buffer pH 5.5 (0.2 M).

By EC50 is commonly meant the concentration that produces a half-maximal response. `O=C(O)c1cc(C(=O)O)c2cc(-c3ccc(-c4ccccc4)cc3)ccc2n1` [LSP13-1152-YL152 (L8), 6-(Biphenyl-4-yl) quinoline-2,4-dicarboxylic Acid]: in data set [1] (DMSO), the λmax abs came to 355, the λmax em worked out at 415, the Stokes shift is 60 and the “ε (molar absorption coefficient)” value is 35280.3 L/cm/mol. Further, the “φ (quantum efficiency)” value in data set [1] (DMSO) came to 0.32. Moreover, the “fluorescence intensity of emission spectra” value in data set [1] (FIG. 1) was “very significant fluorescence intensities”. Also, in data set [1] (pH 5.5), the Stokes shift worked out at 80. The λmax abs in data set [1] (setting [3]) stood at 330. Moreover, the Stokes shift in data set [1] (pH 7) is given as 80. In data set [1] (setting [4]), the λmax abs was determined as 330 and the λmax em was 410. For the same molecule, in data set [2] (quinoline-derived compounds), the “% inhibition of GLU vesicular transport at 20 μM” value (“% inhibition” below) stood at 49% and the EC50 turned out to be 22 µM.

As for `COc1cc2oc(=O)c(C(=O)O)cc2cc1-n1cc(-c2ccc(-c3ccc(N)cc3)cc2)nn1` [LSP17-1124, 6-(4-(4′-amino-[1,1′-biphenyl]-4-yl)-1H-1,2,3-triazol-1-yl)-7-methoxy-2-oxo-2H-chromene-3-carboxylic Acid], in data set [1] (DMSO), the λmax abs was determined as 330, the λmax em is reported as 405-511, the Stokes shift turned out to be 75 and the “ε (molar absorption coefficient)” value is 21908.6 L/cm/mol. The “φ (quantum efficiency)” value in data set [1] (DMSO) is given as 0.14. For the same molecule, the Stokes shift in data set [1] (pH 5.5) is reported as 45. In data set [1] (setting [3]), the λmax abs turned out to be 365 and the λmax em is reported as 416. Besides, the Stokes shift in data set [1] (pH 7) was 51. In data set [1] (setting [4]), the λmax abs was 335 and the λmax em came out at 380. Moreover, in data set [2] (coumarin-derived compounds), the “% inhibition” value was 100% and the EC50 came to 0.4 µM. For the same molecule, the “potency in words (EC50)” value in data set [2] is “effective at a very low concentration”.

Take `Nc1ccc(-c2ccc(C#Cc3cc4cc(C(=O)O)c(=O)oc4cc3O)cc2)cc1` [LSP17-1173, 6-((4′-amino-[1,1′-biphenyl]-4-yl)ethynyl)-7-hydroxy-2-oxo-2H-chromene-3-carboxylic Acid]: in data set [1] (DMSO), the λmax em worked out at 460, the Stokes shift was found to be 125, the “ε (molar absorption coefficient)” value was 51857.8 L/cm/mol and the “φ (quantum efficiency)” value worked out at 0.06. In data set [1] (pH 5.5), the Stokes shift is listed as 47. The λmax abs in data set [1] (setting [3]) was determined as 360. In addition, the Stokes shift in data set [1] (pH 7) was found to be 80. In data set [1] (setting [4]), the λmax abs came out at 365 and the λmax em was 412. Moreover, in data set [2] (coumarin-derived compounds), the “% inhibition” value amounted to 100% and it took 0.5 µM to reach a half-maximal effect (EC50). Besides, the “potency in words (EC50)” value in data set [2] is listed as “effective at a very low concentration”.

Regarding `Nc1ccc(-c2ccc(-c3cn(-c4ccc5oc(=O)c(C(=O)O)cc5c4)nn3)cc2)cc1` [LSP17-1115, 6-(4-(4′-amino-[1,1′-biphenyl]-4-yl)-1H-1,2,3-triazol-1-yl)-2-oxo-2H-chromene-3-carboxylic Acid], in data set [1] (DMSO), the λmax abs amounted to 325, the λmax em came out at 410, the Stokes shift is 85 and the “ε (molar absorption coefficient)” value stood at 36944.8 L/cm/mol. Besides, the “φ (quantum efficiency)” value in data set [1] (DMSO) came to 0.06. The Stokes shift in data set [1] (pH 5.5) was found to be 43. Further, in data set [1] (setting [3]), the λmax abs is listed as 365 and the λmax em was determined as 415. The Stokes shift in data set [1] (pH 7) is 50. In addition, in data set [1] (setting [4]), the λmax abs is given as 365 and the λmax em is recorded as 408. Besides, the “% inhibition” value in data set [2] (coumarin-derived compounds) amounted to 6%.

For `CCOC(=O)c1cc2cc(C#Cc3ccc(-c4ccc(N)cc4)cc3)c(O)cc2oc1=O` [F11, Ethyl-6-((4′-amino-[1,1′-biphenyl]-4-yl)ethynyl)-7-hydroxy-2-oxo-2H-chromene-3-carboxylate], in data set [1] (DMSO), the λmax em is listed as 500-620, the Stokes shift was 160, the “ε (molar absorption coefficient)” value amounted to 62227.6 L/cm/mol and the “φ (quantum efficiency)” value came out at 0.18. In addition, the Stokes shift in data set [1] (pH 5.5) stood at 45. Also, in data set [1] (setting [3]), the λmax abs was found to be 365 and the λmax em is listed as 425. Moreover, the Stokes shift in data set [1] (pH 7) is recorded as 60. In data set [1] (setting [4]), the λmax abs came to 365 and the λmax em is reported as 410.
